Assay results from PMC9429723, “Hypertoxic self-assembled peptide with dual functions of glutathione depletion and biosynthesis inhibition for selective tumor ferroptosis and pyroptosis” (Journal of Nanobiotechnology, 2022).
Read-outs that look alike come from different tables or passages of the source. Blank lines part the entries; values can stand above or below the molecule they belong to. *: point of attachment. Cbz = O=C(OCc1ccccc1)*; CH2F = FC*

How the values were obtained:
4T1 cells [1] = assay: Rescue of NSBSO-induced cell death by inhibitors, 4T1 cells; format: cell-based, mouse
Procedure: (§1) All cells (8 × 10^3 per well) were plated in 96-well plates at 37 °C and 5% CO2 overnight. Then cells were treated with gradient concentrations of NSBSO, NCSBSO, NS or BSO for another 12 h or 24 h. Afterward, cck-8 reagent was added to each well. And the 96-well plates were incubated for another 3 h at 37 °C and followed by determining the absorbance at 450 nm utilizing a microplate reader (Thermo, USA). IC50 values of NSBSO against different cells were conducted using GraphPad Prism 8 software. Additionally, in order to determine the cell cytotoxicity of NSBSO after treatment with various inhibitors or GSH, the cells were pretreated with inhibitors for 24 h or GSH (0, 1, 2.5 and 5 mM) for 12 h before NSBSO treatment.

B16 cells [2] = assay: Rescue of NSBSO-induced cell death by inhibitors, B16 cells; format: cell-based, mouse; conditions: inhibitor pretreated 24 h, NSBSO 12 h, cck-8
Procedure: as §1

3T3 cells = format: cell-based, mouse
Procedure: as §1, with “treatment. The human breast adenocarcinoma cell line (MCF-7 cells), mouse melanoma cell line (B16 cells), human lung cancer line (A549 cells), mouse breast cancer cell line (4T1 cells), murine colon carcinoma cell line (CT26 cells) and mouse embryonic fibroblast cell line (3T3 cells) were used for research. MCF-7 and 3T3 cells were cultured in DMEM culture medium supplemented with 10% FBS and 1% penicillin/streptomycin (pen/strep) at 37 °C in 5% CO2. B16, A549, 4T1 and CT26 cells were cultured in RPMI Medium 1640 basic supplemented with 10% FBS and 1% penicillin/streptomycin (pen/strep) at 37 °C in 5% CO2.” for “treatment.”

4T1 cells [3] = format: cell-based, mouse
Procedure: as §1, with “treatment. The human breast adenocarcinoma cell line (MCF-7 cells), mouse melanoma cell line (B16 cells), human lung cancer line (A549 cells), mouse breast cancer cell line (4T1 cells), murine colon carcinoma cell line (CT26 cells) and mouse embryonic fibroblast cell line (3T3 cells) were used for research. MCF-7 and 3T3 cells were cultured in DMEM culture medium supplemented with 10% FBS and 1% penicillin/streptomycin (pen/strep) at 37 °C in 5% CO2. B16, A549, 4T1 and CT26 cells were cultured in RPMI Medium 1640 basic supplemented with 10% FBS and 1% penicillin/streptomycin (pen/strep) at 37 °C in 5% CO2.” for “treatment.”

B16 cells [4] = format: cell-based, mouse
Procedure: as §1, with “treatment. The human breast adenocarcinoma cell line (MCF-7 cells), mouse melanoma cell line (B16 cells), human lung cancer line (A549 cells), mouse breast cancer cell line (4T1 cells), murine colon carcinoma cell line (CT26 cells) and mouse embryonic fibroblast cell line (3T3 cells) were used for research. MCF-7 and 3T3 cells were cultured in DMEM culture medium supplemented with 10% FBS and 1% penicillin/streptomycin (pen/strep) at 37 °C in 5% CO2. B16, A549, 4T1 and CT26 cells were cultured in RPMI Medium 1640 basic supplemented with 10% FBS and 1% penicillin/streptomycin (pen/strep) at 37 °C in 5% CO2.” for “treatment.”

in vitro = conditions: serum
A549 cells = format: cell-based, human
Procedure: as §1, with “treatment. The human breast adenocarcinoma cell line (MCF-7 cells), mouse melanoma cell line (B16 cells), human lung cancer line (A549 cells), mouse breast cancer cell line (4T1 cells), murine colon carcinoma cell line (CT26 cells) and mouse embryonic fibroblast cell line (3T3 cells) were used for research. MCF-7 and 3T3 cells were cultured in DMEM culture medium supplemented with 10% FBS and 1% penicillin/streptomycin (pen/strep) at 37 °C in 5% CO2. B16, A549, 4T1 and CT26 cells were cultured in RPMI Medium 1640 basic supplemented with 10% FBS and 1% penicillin/streptomycin (pen/strep) at 37 °C in 5% CO2.” for “treatment.”

MCF-7 cells = format: cell-based, human
Procedure: as §1, with “treatment. The human breast adenocarcinoma cell line (MCF-7 cells), mouse melanoma cell line (B16 cells), human lung cancer line (A549 cells), mouse breast cancer cell line (4T1 cells), murine colon carcinoma cell line (CT26 cells) and mouse embryonic fibroblast cell line (3T3 cells) were used for research. MCF-7 and 3T3 cells were cultured in DMEM culture medium supplemented with 10% FBS and 1% penicillin/streptomycin (pen/strep) at 37 °C in 5% CO2. B16, A549, 4T1 and CT26 cells were cultured in RPMI Medium 1640 basic supplemented with 10% FBS and 1% penicillin/streptomycin (pen/strep) at 37 °C in 5% CO2.” for “treatment.”

CT26 cells = format: cell-based, murine
Procedure: as §1, with “treatment. The human breast adenocarcinoma cell line (MCF-7 cells), mouse melanoma cell line (B16 cells), human lung cancer line (A549 cells), mouse breast cancer cell line (4T1 cells), murine colon carcinoma cell line (CT26 cells) and mouse embryonic fibroblast cell line (3T3 cells) were used for research. MCF-7 and 3T3 cells were cultured in DMEM culture medium supplemented with 10% FBS and 1% penicillin/streptomycin (pen/strep) at 37 °C in 5% CO2. B16, A549, 4T1 and CT26 cells were cultured in RPMI Medium 1640 basic supplemented with 10% FBS and 1% penicillin/streptomycin (pen/strep) at 37 °C in 5% CO2.” for “treatment.”

GPX4 = assay: Intracellular GPX4 activity assay in 4T1 cell lysates; format: cell-based, mouse; conditions: 10 μM, 6 h, t-BuOOH as substrate
Procedure: 4T1 cells were all seeded in the density of 1 × 10^6 cells per dish in 6-cm dishes for 24 h. Upon completion of incubation with different treatments for 6 h, the cell lysates were collected and quantified by a detergent compatible bradford protein assay kit. The intracellular GPX activity was measured through a cellular glutathione peroxidase assay kit on the basis of the manufacturer’s instructions.

Molecule: CCOC(=O)c1ccc(NC2CCCCC2)c(N)c1 [Fer-1, ferrostatin-1]
rescue of NSBSO-induced cell death (4T1 cells [1]; Fer-1 0.5 μM pretreated 24 h before NSBSO treatment, cck-8, n = 4): 42.13% | rescue of NSBSO-induced cell death (B16 cells [2]): did not markedly alleviate

Molecule: Cbz-Val-Ala-Asp-CH2F
rescue of NSBSO-induced cell death (4T1 cells [1]; NSBSO 5 μM, 24 h, cck-8): scarcely rescued

IC50 (4T1 cells [3]; 12 h): 10.9 µM | IC50 (4T1 cells [3]; 24 h): 4.74 µM | IC50 (B16 cells [4]; 12 h): 1.98 µM | IC50 (B16 cells [4]; 24 h): 0.844 µM | remaining at 2 h, 400 μM (in vitro): > 80% | remaining at 24 h, 400 μM (in vitro): > 50% | IC50 (A549 cells; 12 h): 7.56 µM | IC50 (A549 cells; 24 h): 1.22 µM | IC50 (MCF-7 cells; 12 h): 4.43 µM | IC50 (MCF-7 cells; 24 h): 1.07 µM | IC50 (CT26 cells; 12 h): > 100 µM | IC50 (CT26 cells; 24 h): > 100 µM
Molecule: CCCCS(=N)(=O)CC[C@H](NC(=O)[C@H](CC(=O)O)NC(=O)[C@@H](NC(=O)[C@H](CCC(=O)O)NC(=O)[C@H](CC(=O)O)NC(=O)CCC(=O)NCCSSCCNC(=O)[C@H](Cc1ccc(O)cc1)NC(=O)[C@@H](Cc1ccccc1)NC(=O)[C@@H](Cc1ccccc1)NC(=O)Cc1ccc2ccccc2c1)C(C)C)C(=O)O (stereo partly drawn) [NSBSO, Nap-^DF^DFY-CS-DEVD-BSO]
IC50 (3T3 cells; 12 h): > 100 µM | IC50 (3T3 cells; 24 h): > 100 µM | cytotoxicity (4T1 cells [3]): concentration-dependent cytotoxicity | cytotoxicity (B16 cells [4]): concentration-dependent cytotoxicity

Molecule: CCCCS(=N)(=O)CC[C@H](N)C(=O)O (stereo partly drawn) [BSO, L-buthionine-sulfoximine, reference compound]
cytotoxicity (4T1 cells [3]): did not show obvious cytotoxicity | cytotoxicity (B16 cells [4]): did not show obvious cytotoxicity | activity of GPX4 (rate of NADPH oxidation, 340 nm) (GPX4): suppressed to varying degrees

Molecule: CC(C)[C@H](NC(=O)[C@H](CCC(=O)O)NC(=O)[C@H](CC(=O)O)NC(=O)CCC(=O)NCCSSCCNC(=O)[C@H](Cc1ccc(O)cc1)NC(=O)[C@@H](Cc1ccccc1)NC(=O)[C@@H](Cc1ccccc1)NC(=O)Cc1ccc2ccccc2c1)C(=O)N[C@@H](CC(=O)O)C(=O)O [NS, Nap-^DF^DFY-CS-DEVD]
cytotoxicity (4T1 cells [3]): concentration-dependent cytotoxicity | cytotoxicity (B16 cells [4]): concentration-dependent cytotoxicity

Molecule: Ac-DEVD-CHO
rescue of NSBSO-induced cell death (B16 cells [2]): better rescued

Molecule: CCCCS(=N)(=O)CC[C@H](NC(=O)[C@H](CC(=O)O)NC(=O)[C@@H](NC(=O)[C@H](CCC(=O)O)NC(=O)[C@H](CC(=O)O)NC(=O)CCC(=O)NCCCCCCNC(=O)[C@H](Cc1ccc(O)cc1)NC(=O)[C@@H](Cc1ccccc1)NC(=O)[C@@H](Cc1ccccc1)NC(=O)Cc1ccc2ccccc2c1)C(C)C)C(=O)O (stereo partly drawn) [NCBSO, Nap-^DF^DFY-HDA-DEVD-BSO]
cytotoxicity (4T1 cells [3]): did not show obvious cytotoxicity | cytotoxicity (B16 cells [4]): did not show obvious cytotoxicity
